Data on 3 compounds can be found in ChEMBL document CHEMBL1201862, “PubChem BioAssay data set” (2004).

One assay concerns the target Phospholipase D2 (Homo sapiens, UniProt O14939). The assay is described as follows: cellular phospholipase D2 inhibition IC50 – cell-based, dose response (AID 602147).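 Also: cellular assay in HEK293 cells overexpressing GFP-tagged PLD2.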 The format is functional.
The target of the next assay is T1, Phospholipase D1 (Homo sapiens, UniProt Q13393).
T1 sequence (Q13393 whole entry): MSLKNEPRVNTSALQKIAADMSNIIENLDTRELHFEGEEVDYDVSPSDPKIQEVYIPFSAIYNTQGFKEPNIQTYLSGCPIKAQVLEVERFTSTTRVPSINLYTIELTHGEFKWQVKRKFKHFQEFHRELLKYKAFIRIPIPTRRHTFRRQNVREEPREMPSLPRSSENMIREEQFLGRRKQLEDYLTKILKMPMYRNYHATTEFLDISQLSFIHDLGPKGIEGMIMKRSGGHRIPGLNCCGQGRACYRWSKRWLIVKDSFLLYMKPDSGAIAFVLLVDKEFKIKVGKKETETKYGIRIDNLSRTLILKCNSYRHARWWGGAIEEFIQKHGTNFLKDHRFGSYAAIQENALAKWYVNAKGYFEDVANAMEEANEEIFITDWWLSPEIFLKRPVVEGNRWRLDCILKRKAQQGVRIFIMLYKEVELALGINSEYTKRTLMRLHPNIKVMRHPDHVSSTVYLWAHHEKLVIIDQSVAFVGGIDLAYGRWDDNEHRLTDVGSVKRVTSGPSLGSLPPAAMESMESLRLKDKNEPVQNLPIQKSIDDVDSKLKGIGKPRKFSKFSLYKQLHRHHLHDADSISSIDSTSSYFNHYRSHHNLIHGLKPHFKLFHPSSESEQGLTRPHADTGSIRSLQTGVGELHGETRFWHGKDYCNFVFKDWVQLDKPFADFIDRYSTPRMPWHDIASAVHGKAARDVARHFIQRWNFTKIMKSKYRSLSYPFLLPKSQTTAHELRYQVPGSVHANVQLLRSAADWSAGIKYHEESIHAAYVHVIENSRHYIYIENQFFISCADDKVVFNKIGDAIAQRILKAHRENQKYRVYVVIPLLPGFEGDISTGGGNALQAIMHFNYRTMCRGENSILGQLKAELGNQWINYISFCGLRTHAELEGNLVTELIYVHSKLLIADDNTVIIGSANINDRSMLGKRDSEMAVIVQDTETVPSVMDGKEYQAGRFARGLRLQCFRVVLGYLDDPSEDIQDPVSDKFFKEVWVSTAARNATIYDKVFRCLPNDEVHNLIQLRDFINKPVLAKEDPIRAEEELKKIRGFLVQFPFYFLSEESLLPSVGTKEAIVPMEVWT
The assay is described as follows: cellular phospholipase D1 inhibition IC50 – cell-based, dose response (AID 602151).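 Also: cellular PLD1 assay in Calu-1 cells stimulated with PMA.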 The format is functional.

The target of assay [1] is T2, Apoptotic protease-activating factor 1 (Homo sapiens, UniProt O14727).
T2 sequence (O14727 whole entry): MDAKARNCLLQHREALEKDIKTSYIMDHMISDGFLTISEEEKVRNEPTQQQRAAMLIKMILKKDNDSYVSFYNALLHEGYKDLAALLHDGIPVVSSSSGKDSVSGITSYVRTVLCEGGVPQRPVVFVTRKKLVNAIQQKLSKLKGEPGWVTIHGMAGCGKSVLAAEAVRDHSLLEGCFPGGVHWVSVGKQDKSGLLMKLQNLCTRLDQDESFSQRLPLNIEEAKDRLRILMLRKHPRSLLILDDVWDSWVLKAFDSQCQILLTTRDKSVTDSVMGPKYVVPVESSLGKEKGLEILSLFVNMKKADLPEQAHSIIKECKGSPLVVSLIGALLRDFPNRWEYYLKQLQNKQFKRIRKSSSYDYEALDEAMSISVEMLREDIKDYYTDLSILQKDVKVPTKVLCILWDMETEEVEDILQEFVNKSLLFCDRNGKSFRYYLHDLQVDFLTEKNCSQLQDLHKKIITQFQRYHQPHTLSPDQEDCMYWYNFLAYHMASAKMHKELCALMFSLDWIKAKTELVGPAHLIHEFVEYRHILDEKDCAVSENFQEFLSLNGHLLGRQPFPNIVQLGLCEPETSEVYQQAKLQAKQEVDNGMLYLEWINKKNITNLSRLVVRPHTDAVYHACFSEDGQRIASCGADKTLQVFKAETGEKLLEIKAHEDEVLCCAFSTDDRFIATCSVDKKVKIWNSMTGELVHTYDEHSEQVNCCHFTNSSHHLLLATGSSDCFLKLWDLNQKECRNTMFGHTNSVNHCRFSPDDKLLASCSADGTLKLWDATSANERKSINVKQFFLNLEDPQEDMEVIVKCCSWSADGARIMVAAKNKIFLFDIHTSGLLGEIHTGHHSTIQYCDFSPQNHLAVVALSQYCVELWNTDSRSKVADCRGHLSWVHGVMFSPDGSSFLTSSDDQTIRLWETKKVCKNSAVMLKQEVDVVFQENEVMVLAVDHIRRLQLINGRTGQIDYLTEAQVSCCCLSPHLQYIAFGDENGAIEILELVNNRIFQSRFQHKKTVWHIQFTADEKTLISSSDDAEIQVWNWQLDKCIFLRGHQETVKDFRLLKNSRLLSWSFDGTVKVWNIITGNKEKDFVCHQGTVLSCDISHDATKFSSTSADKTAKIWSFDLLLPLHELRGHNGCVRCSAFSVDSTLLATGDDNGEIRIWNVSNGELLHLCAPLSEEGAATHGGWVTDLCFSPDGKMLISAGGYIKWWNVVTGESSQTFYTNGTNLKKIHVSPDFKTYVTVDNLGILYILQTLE
The format is functional.

Assay [2] deals with T3, Voltage-gated N-type calcium channel alpha-1B subunit/Amyloid beta A4 precursor protein-binding family A member 1 (Homo sapiens, UniProt Q00975+Q02410). The format is protein assay.
Assay [3] deals with T3, Voltage-gated N-type calcium channel alpha-1B subunit/Amyloid beta A4 precursor protein-binding family A member 1. The format is protein assay. The source holds these as a separate data set.
The target in a further assay is Large T antigen (Simian virus 40, UniProt P03070). The format is functional, Betapolyomavirus macacae.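 Also: Confirmatory-stage PubChem screen for compounds that inhibit SV40 T antigen.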
A further assay has as its target T4, Protein RecA (Mycobacterium tuberculosis, UniProt P9WHJ3).
T4 sequence (P9WHJ3 whole entry): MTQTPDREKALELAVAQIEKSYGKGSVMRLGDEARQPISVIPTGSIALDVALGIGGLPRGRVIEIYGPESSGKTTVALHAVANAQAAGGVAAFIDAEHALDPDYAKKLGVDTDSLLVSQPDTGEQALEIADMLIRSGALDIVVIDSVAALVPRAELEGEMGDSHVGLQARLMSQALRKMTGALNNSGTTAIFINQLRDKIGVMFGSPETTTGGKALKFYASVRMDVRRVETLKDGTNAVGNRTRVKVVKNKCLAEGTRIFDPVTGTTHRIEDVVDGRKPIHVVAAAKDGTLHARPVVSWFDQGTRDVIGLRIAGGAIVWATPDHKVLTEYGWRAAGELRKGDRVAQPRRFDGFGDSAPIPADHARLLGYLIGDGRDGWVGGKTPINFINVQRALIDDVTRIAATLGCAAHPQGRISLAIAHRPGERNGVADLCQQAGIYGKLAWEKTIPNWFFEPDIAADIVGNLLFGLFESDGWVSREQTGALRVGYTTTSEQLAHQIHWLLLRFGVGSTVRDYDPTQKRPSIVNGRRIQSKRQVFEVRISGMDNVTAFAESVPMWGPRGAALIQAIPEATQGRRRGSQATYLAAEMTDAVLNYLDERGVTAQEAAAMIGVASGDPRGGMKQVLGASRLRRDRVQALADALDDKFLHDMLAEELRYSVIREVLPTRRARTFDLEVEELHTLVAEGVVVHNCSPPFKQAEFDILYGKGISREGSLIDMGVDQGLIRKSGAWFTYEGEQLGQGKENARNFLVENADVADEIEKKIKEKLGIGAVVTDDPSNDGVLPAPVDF
The assay is described as follows: Fluorescence Cell-Free Homogeneous Dose Retest to Identify Inhibitors of RecA-Intein Splicing Activity. [Related pubchem assays (depositor defined):AID2097, AID2223, AID489010, AID492950]. The format is functional.

The target of assay [4] is Glucose-6-phosphate 1-dehydrogenase (Homo sapiens, UniProt P11413). The assay is described as follows: inhibition of Homo sapiens G6PD, dose series – biochemical, fluorescence, selectivity assay for P. falciparum G6PD inhibitor project, dose response (AID 504792). The format is functional.
The target of assay [5] is T5, Replicative DNA helicase DnaB (Mycobacterium tuberculosis, UniProt P9WMR3).
T5 sequence (P9WMR3 whole entry): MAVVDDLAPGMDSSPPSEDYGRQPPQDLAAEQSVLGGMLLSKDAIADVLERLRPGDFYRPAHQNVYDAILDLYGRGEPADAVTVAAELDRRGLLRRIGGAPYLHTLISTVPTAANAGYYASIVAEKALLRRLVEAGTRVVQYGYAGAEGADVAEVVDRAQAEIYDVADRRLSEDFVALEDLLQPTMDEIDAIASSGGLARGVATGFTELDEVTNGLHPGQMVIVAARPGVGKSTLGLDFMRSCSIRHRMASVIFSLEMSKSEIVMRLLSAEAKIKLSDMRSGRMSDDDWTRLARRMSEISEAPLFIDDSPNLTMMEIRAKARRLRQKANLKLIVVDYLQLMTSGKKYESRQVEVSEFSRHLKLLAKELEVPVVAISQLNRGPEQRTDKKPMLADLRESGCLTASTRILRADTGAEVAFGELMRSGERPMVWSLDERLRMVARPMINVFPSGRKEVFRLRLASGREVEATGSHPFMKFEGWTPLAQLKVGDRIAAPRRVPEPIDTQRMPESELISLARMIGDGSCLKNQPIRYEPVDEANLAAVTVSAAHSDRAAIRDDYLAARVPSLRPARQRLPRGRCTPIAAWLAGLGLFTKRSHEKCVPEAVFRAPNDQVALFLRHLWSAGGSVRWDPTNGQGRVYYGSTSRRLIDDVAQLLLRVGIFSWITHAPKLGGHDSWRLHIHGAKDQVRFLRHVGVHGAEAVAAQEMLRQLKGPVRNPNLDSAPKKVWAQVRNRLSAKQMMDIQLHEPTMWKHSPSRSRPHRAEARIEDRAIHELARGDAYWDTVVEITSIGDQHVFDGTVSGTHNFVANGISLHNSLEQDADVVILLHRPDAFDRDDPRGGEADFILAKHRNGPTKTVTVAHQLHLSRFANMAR
The assay is described as follows: DnaB intein splicing inhibitors, dose response, biochemical, cell-free fluorescence (AID 449749). The format is functional.

The structures appear in SMILES notation. Activity calls are given as the source filed them.

T3 sequence (Q00975 whole entry): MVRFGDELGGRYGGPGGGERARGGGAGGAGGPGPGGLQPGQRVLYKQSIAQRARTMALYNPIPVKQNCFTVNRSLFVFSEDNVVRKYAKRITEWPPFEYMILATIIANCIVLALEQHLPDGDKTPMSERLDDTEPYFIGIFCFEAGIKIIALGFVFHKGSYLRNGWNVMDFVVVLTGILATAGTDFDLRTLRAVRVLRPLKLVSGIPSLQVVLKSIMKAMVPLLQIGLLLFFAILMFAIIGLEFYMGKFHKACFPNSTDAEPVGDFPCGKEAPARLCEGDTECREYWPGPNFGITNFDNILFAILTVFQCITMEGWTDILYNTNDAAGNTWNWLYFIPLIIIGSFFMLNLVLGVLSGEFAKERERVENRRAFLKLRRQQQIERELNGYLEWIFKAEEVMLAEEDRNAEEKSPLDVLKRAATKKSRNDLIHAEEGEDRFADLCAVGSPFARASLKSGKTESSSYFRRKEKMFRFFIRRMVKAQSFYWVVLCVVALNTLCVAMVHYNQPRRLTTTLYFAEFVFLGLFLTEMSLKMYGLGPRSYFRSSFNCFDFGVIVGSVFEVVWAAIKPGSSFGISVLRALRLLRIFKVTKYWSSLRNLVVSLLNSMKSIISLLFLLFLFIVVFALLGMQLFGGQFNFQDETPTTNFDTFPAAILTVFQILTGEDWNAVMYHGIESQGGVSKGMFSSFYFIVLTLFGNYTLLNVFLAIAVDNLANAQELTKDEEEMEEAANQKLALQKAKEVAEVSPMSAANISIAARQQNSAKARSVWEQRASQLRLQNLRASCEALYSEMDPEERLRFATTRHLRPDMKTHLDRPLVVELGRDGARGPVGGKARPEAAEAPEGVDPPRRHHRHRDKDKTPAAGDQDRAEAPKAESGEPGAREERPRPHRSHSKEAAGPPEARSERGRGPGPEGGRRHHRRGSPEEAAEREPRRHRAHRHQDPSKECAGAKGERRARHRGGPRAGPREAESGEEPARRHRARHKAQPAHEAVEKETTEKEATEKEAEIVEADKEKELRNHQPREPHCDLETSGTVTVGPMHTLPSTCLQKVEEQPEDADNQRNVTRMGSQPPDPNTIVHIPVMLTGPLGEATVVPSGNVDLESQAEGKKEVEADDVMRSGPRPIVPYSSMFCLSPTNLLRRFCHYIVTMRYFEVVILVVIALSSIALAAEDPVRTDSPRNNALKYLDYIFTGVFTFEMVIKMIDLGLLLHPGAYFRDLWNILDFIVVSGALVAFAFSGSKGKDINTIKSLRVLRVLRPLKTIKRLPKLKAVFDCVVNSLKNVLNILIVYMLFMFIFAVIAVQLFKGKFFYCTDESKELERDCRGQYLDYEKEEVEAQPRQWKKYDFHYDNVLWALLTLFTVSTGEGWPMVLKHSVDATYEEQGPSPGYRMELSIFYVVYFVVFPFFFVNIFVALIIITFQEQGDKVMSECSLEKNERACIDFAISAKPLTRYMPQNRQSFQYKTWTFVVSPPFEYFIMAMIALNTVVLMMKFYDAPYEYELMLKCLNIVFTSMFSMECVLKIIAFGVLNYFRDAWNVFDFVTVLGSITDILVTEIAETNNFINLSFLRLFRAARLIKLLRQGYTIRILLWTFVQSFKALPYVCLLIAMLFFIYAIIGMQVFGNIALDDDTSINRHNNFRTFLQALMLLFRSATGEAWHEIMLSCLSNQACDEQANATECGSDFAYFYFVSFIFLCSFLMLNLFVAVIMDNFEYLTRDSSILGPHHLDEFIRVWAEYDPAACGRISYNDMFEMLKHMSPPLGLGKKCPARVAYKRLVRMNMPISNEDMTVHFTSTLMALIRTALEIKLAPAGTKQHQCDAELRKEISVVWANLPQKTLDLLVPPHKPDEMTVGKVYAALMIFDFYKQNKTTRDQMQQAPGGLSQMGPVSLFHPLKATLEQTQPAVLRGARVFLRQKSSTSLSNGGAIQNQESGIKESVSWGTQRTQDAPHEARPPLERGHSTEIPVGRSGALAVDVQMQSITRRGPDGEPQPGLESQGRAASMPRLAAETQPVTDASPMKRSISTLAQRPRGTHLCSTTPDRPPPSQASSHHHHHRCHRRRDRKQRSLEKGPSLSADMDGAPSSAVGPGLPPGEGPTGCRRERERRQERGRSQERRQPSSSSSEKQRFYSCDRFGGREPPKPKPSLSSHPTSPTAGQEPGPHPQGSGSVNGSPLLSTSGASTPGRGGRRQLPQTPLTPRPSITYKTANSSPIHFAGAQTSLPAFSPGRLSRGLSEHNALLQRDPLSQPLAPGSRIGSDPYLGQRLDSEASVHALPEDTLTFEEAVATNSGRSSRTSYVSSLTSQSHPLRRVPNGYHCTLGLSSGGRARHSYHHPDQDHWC
T3 sequence (Q02410 whole entry): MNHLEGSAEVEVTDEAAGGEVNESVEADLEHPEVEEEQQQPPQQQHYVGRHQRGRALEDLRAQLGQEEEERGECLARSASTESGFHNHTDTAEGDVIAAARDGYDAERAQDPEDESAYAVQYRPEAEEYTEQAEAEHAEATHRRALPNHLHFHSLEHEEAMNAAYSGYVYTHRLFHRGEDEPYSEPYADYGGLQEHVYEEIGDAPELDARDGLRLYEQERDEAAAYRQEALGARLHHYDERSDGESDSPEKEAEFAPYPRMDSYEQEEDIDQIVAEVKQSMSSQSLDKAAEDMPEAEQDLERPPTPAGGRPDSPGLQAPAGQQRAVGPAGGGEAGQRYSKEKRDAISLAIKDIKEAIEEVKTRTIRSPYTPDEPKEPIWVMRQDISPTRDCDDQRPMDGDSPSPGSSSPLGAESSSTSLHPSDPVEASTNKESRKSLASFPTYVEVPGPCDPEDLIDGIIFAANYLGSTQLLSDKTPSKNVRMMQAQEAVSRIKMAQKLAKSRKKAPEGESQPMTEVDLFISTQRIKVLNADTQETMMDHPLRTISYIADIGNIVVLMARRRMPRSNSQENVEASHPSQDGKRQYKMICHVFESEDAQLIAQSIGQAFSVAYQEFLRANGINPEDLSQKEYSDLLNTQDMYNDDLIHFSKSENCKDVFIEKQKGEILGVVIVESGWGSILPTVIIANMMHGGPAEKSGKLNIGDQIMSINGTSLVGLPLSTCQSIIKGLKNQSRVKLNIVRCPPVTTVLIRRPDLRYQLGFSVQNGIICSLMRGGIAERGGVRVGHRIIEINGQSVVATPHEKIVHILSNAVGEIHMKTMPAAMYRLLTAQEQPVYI
Chain of Phospholipase D2 (O14939 whole entry): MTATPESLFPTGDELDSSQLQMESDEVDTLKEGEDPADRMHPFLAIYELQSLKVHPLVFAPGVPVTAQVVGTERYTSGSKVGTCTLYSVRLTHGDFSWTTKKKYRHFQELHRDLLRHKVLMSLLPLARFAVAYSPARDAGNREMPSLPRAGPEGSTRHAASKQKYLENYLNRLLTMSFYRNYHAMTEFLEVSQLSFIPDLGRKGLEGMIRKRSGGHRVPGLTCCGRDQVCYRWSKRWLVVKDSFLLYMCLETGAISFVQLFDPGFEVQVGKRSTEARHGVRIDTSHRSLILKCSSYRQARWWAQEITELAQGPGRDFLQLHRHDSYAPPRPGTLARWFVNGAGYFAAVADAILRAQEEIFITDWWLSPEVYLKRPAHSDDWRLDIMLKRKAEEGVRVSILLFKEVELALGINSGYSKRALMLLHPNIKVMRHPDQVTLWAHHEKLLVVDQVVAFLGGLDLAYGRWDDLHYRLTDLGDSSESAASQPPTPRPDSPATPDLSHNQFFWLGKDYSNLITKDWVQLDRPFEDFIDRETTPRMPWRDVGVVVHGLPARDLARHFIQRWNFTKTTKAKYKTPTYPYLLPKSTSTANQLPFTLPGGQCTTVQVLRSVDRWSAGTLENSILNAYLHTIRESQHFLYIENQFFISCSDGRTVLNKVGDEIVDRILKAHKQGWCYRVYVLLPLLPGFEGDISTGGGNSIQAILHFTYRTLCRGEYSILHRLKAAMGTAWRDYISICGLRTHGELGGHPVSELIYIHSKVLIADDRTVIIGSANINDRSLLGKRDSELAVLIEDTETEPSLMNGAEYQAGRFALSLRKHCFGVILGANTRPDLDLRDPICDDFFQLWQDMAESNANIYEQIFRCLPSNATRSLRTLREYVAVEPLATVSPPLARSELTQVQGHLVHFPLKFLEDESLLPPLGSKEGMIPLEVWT
Chain of Large T antigen (P03070 whole entry): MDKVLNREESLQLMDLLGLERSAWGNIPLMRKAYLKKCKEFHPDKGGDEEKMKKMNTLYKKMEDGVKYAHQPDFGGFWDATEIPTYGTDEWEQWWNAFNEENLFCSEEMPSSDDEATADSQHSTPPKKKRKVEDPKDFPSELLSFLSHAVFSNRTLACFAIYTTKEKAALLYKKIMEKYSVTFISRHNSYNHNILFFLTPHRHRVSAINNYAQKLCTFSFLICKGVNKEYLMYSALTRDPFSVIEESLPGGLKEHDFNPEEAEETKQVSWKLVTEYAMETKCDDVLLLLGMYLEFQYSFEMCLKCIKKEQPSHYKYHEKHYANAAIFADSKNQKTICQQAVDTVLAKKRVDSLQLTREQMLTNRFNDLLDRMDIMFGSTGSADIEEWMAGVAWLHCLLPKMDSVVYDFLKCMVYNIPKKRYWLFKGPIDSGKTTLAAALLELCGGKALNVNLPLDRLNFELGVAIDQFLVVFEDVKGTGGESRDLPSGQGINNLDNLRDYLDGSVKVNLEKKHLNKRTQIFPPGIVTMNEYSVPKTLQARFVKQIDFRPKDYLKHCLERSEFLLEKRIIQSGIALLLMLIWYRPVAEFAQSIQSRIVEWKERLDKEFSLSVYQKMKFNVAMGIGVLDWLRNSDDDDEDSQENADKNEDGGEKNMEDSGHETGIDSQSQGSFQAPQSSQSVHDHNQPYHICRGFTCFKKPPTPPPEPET

On to `C[C@@H](CN1CC=C(n2c(=O)[nH]c3ccccc32)CC1)NC(=O)c1ccc2ccccc2c1`, for which the values for the IC50 at Phospholipase D2 and at Phospholipase D1 were 2.25 µM (active) and 50 nM (active), respectively.
For `CC1(C)[N+]([O-])=c2ccc([N+](=O)[O-])cc2=[N+]1[O-].NO`, the IC50 (as a rule, the midpoint of a concentration-inhibition curve) in assay [1] was 11.7 µM (active); in assay [2], 260 nM (active); in assay [3] it was 22.1 µM (active); at Large T antigen, 6.55 µM (active).
Regarding `Nc1ccc(N(CCO)CCO)cc1`, the EC50 (usually the concentration that produces a half-maximal response) on Protein RecA was > 380 µM (inconclusive). Moreover, the IC50 in [1] was 88.3 µM (active); in assay [4], > 80 µM (inactive). For the same compound, in assay [5], the AC50 (as a rule, the concentration giving half of the maximal activity seen) is 256 µM (active).
